Data on 1 compound can be found in PMC10144134, “Characterization of Potent ABCG2 Inhibitor Derived from Chromone: From the Mechanism of Inhibition to Human Extracellular Vesicles for Drug Delivery” (Pharmaceutics, 2023).

The subject of one series is HEK293-ABCG2 cells. Put plainly: MTT chemosensitization assay, HEK293-ABCG2. In kind it is cell-based, human. The conditions noted are these: supernatant containing C4a free at 0.1 to 10 µM + SN38 10 nM. As to the method: HEK293 WT (wild type) and HEK293-ABCG2 cells were seeded (2.5 × 10^4 cell/well) into a 96-well plate and incubated for 24 h. Cells were concomitantly treated with EVs […]C4a (0.1, 1 and 10 μM) and SN-38 (10 nM) for 72 h. After this period, the medium was removed, cells were washed with PBS (100 μL) and incubated with MTT solution (100 μL of solution 0.5 mg/mL in PBS) for 4 h. Then, the solution was removed, and the formazan crystals were dissolved with 100 μL of ethanol/DMSO (1:1). The absorbance was measured using a microplate reader at 595 nm (Bio-Rad iMark, Hercules, CA, USA).
In general terms: Tetrazolium dyes change colour on reduction, which living cells bring about.

The target of another series is P-gp (Homo sapiens, UniProt P08183). As to the kind of experiment: Thermostabilization assay on ATPase activity of P-gp. Set-up: made in house; host or cells: High-Five insect cells (total membrane vesicles). The class given is biochemical. The conditions noted are these: C4a 10 μM. As to the method: The thermal stability assay was performed according to previous reports. […] To evaluate the effect of C4a over thermal stability, each sample was prepared with 12.5 mM MgCl2 or 6.25 mM ATP and incubated at a temperature ranging from 37 to 71 °C for 10 min using a thermocycler C1000 Touch (Bio-Rad, Hercules, CA, USA). After incubation, 10 µL of 25 mM ATP or 50 mM MgCl2 (5 and 10 mM final concentration, respectively) was added and incubated at 37 °C/20 min to allow ATP hydrolysis. The reaction was stopped with the addition of 50 µL of Pi reagent containing 1% ammonium molybdate, 2.5 N H2SO4 and 0.014% potassium-antimony tartrate. To evaluate the absorbance, the samples were transferred to a 96-well plate (50 µL/well), then 150 µL of 0.33% sodium ascorbate solution was added. The absorbance was measured after 10 min incubation at room temperature using the microplate reader Spectramax iD3 (Molecular Devices, San Jose, CA, USA). The sensitive activity to vanadate (Vi) was calculated as the difference between the activity in the absence of Vi minus the activity in the presence of Vi at each temperature.

In the next series the target is T1, ABCG2 (Homo sapiens, UniProt Q9UNQ0).
T1 sequence (Q9UNQ0 1-655): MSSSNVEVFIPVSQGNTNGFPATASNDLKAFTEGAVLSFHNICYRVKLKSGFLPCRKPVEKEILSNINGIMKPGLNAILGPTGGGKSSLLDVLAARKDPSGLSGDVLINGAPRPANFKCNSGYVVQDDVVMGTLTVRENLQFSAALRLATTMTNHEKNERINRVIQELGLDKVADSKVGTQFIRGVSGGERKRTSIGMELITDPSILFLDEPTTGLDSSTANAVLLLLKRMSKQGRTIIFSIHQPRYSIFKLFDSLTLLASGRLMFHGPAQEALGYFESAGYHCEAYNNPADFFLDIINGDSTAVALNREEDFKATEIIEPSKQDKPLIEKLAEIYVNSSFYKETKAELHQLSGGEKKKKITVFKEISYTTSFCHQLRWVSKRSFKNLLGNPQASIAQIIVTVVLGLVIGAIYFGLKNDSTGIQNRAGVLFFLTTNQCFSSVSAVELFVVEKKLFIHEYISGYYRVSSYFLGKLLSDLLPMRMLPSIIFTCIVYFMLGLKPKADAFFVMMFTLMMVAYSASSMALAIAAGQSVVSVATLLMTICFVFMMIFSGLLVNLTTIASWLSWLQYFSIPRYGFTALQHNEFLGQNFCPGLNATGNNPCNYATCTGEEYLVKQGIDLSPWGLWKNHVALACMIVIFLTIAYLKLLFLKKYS
As to the kind of experiment: 5D3 shift assay. In kind it is cell-based. On the set-up: expressed in transfected cells; host or cells: HEK293 (stably transfected, G418 selection; gift of Dr. Attilio Di Pietro). The conditions noted are these: C4a 10 µM, Ko143 2 µM, HEK293-ABCG2.

The target in the next series is T2, ABCG2 versus P-gp (Homo sapiens, UniProt Q9UNQ0).
T2 sequence (Q9UNQ0 1-655): T1 sequence (Q9UNQ0 1-655)
As to the kind of experiment: in vitro. The conditions noted are these: high-five membrane vesicles, pH 6.8.

The nature of the next series: Water solubility. The class given is physicochemical. To be noted: aqueous.

SMILES strings stand for the structures.

Sequence of P-gp (P08183 whole entry): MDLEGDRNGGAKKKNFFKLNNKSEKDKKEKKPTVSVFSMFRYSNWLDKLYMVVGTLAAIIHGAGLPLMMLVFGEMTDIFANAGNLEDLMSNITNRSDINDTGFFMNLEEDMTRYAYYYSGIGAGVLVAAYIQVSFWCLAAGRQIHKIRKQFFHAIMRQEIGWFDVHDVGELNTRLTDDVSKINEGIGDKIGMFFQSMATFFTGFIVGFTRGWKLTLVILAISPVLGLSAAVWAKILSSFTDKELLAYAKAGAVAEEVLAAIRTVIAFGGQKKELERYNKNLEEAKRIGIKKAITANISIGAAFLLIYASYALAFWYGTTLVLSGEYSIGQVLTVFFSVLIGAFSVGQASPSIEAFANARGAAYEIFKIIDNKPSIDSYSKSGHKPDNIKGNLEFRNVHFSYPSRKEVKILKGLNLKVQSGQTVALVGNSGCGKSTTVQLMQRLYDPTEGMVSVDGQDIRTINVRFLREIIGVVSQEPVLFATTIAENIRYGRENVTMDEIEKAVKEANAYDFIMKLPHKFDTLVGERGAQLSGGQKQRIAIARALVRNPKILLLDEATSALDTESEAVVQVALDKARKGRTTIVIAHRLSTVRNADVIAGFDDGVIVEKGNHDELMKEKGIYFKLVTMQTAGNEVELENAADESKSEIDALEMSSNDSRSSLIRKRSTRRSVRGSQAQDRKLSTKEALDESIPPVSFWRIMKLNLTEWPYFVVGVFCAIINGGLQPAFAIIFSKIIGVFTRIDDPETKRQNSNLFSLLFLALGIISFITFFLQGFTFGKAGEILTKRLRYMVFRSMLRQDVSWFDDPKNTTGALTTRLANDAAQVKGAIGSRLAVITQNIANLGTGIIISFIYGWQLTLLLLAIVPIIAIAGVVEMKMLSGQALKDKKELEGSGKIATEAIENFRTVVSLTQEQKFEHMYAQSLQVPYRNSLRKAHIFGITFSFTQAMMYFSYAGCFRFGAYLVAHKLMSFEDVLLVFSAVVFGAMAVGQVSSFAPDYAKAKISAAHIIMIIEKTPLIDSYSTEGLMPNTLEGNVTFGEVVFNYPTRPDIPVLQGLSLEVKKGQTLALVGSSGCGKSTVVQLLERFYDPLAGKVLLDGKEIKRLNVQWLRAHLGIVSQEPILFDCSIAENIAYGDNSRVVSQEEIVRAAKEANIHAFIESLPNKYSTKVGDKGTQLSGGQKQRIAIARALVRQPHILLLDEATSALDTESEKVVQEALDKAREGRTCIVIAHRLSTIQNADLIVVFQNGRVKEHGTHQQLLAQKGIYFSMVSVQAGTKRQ
Method for ABCG2 versus P-gp: The absorbance was measured after 10 min incubation at room temperature using the spectrophotometer Ultrospec 3100 pro (Amersham Biosciences, Amersham, UK) at 880 nm wavelength.

For the compound `COc1ccc2[nH]cc(CCNC(=O)c3cc(=O)c4c(OCc5ccccc5Br)cccc4o3)c2c1` [C4a, chromone 4a], in the series with HEK293-ABCG2 cells, the “reversion of the resistance phenotype mediated by ABCG2, supernatant” value is recorded as “complete reversion”. The “effect on ATP-induced thermostabilization of P-gp” value at P-gp is on record as “preventing thermostabilization”. For the same compound, the “IT50, P-gp -ATP” value on P-gp (absence of ATP) is recorded as 50.02 ± 0.31 ºC. Besides, the “binding of conformational antibody 5D3” value on ABCG2 is “increased the binding of 5D3”. The selectivity ratio at 20 min at ABCG2 versus P-gp worked out at 67. In “Water solubility”, the solubility entry is given as “low solubility”.
